# According to patent publication US12692283B2, “Lignan derivative, preparation method therefor and use thereof” (SHANGHAI INSTITUTE OF MATERIA MEDICA, CHINESE ACADEMY OF …, priority 2021, dated 2026):
# Legend:
# Type in all cases: in vivo, mouse
# [1] = tested on: mice with liver fibrosis induced by carbon tetrachloride; assay: Efficacy in mice with carbon tetrachloride-induced liver fibrosis; conditions: intragastric 1 mg/kg/day and 3 mg/kg/day for 3 weeks
# Method: Experimental animals: 40 male C57 mice, 8 weeks old.
# Modeling and administration: 400 μL of carbon tetrachloride (CCl4) was added to 3.6 mL of olive oil, mixed well, and then injected intraperitoneally at 0.1 mL/20 g, twice a week for six weeks. Six weeks later, 30 mice were divided into 3 groups, with 10 mice in each group. They were given physiological saline by gavage, 1 mg/kg A5 and 3 mg/kg A5. In addition, 10 mice that were not induced were given physiological saline as a control group. After 3 weeks of continuous administration, the mice were sacrificed, and the livers were removed, weighed, fixed and embedded, and the remaining liver tissue was cryopreserved for detection of hydroxyproline content.
# Masson staining of mouse liver tissue: The mouse liver tissue was paraffin-embedded according to conventional methods, and sections were subjected to Masson staining. The specific procedures were as follows. […]
# Detection of hydroxyproline content in mouse liver tissue: A hydroxyproline detection kit (Nanjing Jiancheng Bioengineering Institute) was used. […] Absorbance values of the supernatant at a wavelength of 550 nm were determined using a microplate reader. The hydroxyproline content per 100 mg of liver tissue was then calculated.
# [2] = tested on: mice with oxazolone-induced enteritis; assay: Efficacy in mice with oxazolone-induced inflammatory bowel disease; conditions: intragastric 1 mg/kg/day
# Method: Experimental animals: 30 male C57 mice, 8 weeks old.
# Modeling and administration: 3% Oxazolone was dissolved in the solvent (acetone:olive oil, 1:4). After the mouse was anesthetized, the hair on the shoulder of the mouse was removed, and then 150 μL of Oxazolone with a mass fraction of 3% was added dropwise. On the 8th day after treatment, 1% Oxazolone was dissolved in a solvent (ethanol:sterilized water, 1:1). After the mice were anesthetized, 150 μL of 1% Oxazolone was administered rectally to create a model. The modeling mice were divided into two groups, with 10 mice in each group. One group was given compound A5 by gavage at 1 mg/kg/day, one group was given physiological saline, and the other group of 10 mice without modeling was used as a control group. Starting from the day of modeling, the weight of the mice was recorded every day. The feces of the mice were collected on the third day after rectal administration to observe the softness of the feces and whether there was bleeding. […]
# Mouse enteritis disease activity index score: Mice were scored based on the degree of weight loss of the mouse (0: normal; 1:1-5%; 2:6-10%; 3:11-18%; 4: >18%), the degree of the softness of the feces (0: normal; 2: soft; 4: diarrhea), and the degree of feces bleeding (0: normal; 2: occult blood; 4: bloody stool), then each score was added and divide by three. […]
# [3] = Oral pharmacokinetics of phosphate prodrug A5 in ICR mice (plasma and tissues); conditions: oral 30 mg/kg
# Method: Compound A5 (30 mg/kg) was administered orally to overnight fasted ICR mice (male, n=3/time point). The mice were fed 2 hours after administration. Samples were collected before administration and 1 h, 2 h, 4 h, and 8 h after administration. Blood was collected in centrifuge tubes pretreated with heparin sodium and bis(4-nitrophenyl)phosphate (BNPP). After centrifugation at 11,000 rpm for 5 min at 4° C., plasma was obtained and stored at −80° C. Next, 100 […] of plasma sample, precipitated, vortexed for 1 min, and centrifuged (11,000 rpm) for 5 min. A mixture of 20 […] of methanol/acetonitrile (1:1, v/v) was taken to analyze the concentrations of compound A5 and compound A4-1a by LC-MS/MS. Heart (blood emptying), liver, and lung tissues were stored at −80° C. until analysis. After removal of contents, the duodenum and colon were quickly washed with cold saline containing BNPP and stored at −80° C. until analysis. […] 20 μL of the supernatant was redissolved in 20 μL of ACN/H2O (1:1, v/v), and the concentrations of compound A5 and compound A4-1a were analyzed by LC-MS/MS.
smiles,measurement,setting,value
"COc1ccc(C[C@H]2COC(=O)[C@]2(C)Cc2ccc(OP(=O)(O)O)c(OC)c2)cc1OC [Compound A5, 4-(((3R,4R)-4-(3,4-dimethoxybenzyl)-3-methyl-2-oxotetrahydrofuran-3-yl)methyl)-2-methoxyphenyl dihydrogen phosphate]",hydroxyproline (HYP) content in liver tissue,[1],significantly reduce the increase in hydroxyproline content
same,positive rate of Masson staining in liver (degree of liver fibrosis),[1],significantly reduce the degree of liver fibrosis
same,colon pathology score,[2],significantly reduce the colon pathology score
same,disease activity index of enteritis,[2],significantly reduce the disease activity index
same,drug concentration in plasma and various tissues,[3],good drug concentration in plasma and various tissues
